Test results as given in US6784201B2, “Benzothiepines having activity as inhibitors of ileal bile acid transport and taurocholate uptake” (G.D. Searle & Company, priority 1994, dated 2004).
Structures can show the parent of a compound that is named as a salt. Where two headings read alike, the source gives them in different places. One block for each compound: values may come before it.

How the values were obtained:
[1] = target: T1, human IBAT (Homo sapiens, UniProt Q12908); test: In vitro assay of IBAT-mediated uptake of [14C]-taurocholate (TC) in H14 cells; format: cell-based
T1 construct: expressed in transfected cells; host or cells: Baby hamster kidney (BHK) cells, clone H14
T1 sequence (Q12908 1-348): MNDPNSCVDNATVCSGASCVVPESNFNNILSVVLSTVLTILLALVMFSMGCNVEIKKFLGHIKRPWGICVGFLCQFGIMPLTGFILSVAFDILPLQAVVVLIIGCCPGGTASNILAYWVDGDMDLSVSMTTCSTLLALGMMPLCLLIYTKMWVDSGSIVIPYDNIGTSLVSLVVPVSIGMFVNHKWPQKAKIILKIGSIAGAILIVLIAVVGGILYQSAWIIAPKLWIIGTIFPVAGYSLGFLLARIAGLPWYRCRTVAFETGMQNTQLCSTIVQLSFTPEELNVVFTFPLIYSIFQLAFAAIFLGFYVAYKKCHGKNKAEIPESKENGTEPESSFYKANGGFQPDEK
Method in brief: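 BHK cells stably expressing human IBAT (H14) were incubated 2 h at 37° C with compound and 3 μM final [14C]-taurocholate in DMEM (4.5 g/L glucose) plus 0.2% fatty acid-free BSA. After cold PBS washes, cell-associated radioactivity was measured by scintillation counting.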

[2] = tested on: H14 cells; test: In vitro assay of uptake of [14C]-alanine; format: cell-based, hamster
Description: Baby hamster kidney cells (BHK) transfected with the cDNA of human IBAT (H14 cells) are seeded at 60,000 cells/well in 96 well Top-Count tissue culture plates for assays run within in 24 hours of seeding, 30,000 cells/well for assays run within 48 hours, and 10,000 cells/well for assays run within 72 hours.
On the day of assay, the cell monolayer is gently washed once with 100 μl assay buffer (Dulbecco's Modified Eagle's medium with 4.5 g/L glucose+0.2% (w/v) fatty acid free bovine serum albumin-(FAF)BSA). To each well 50 μl of a two-fold concentrate of test compound in assay buffer is added along with 50 μl of 6 μM [^14C]-taurocholate in assay buffer (final concentration of 3 μM [^14C]-taurocholate). The cell culture plates are incubated 2 hours at 37° C. prior to gently washing each well twice with 100 μl 4° C. Dulbecco's phosphate-buffered saline (PBS) containing 0.2% (w/v) (FAF)BSA. The wells are then gently washed once with 100 μl 4° C. PBS without (FAF)BSA. To each 200 μl of liquid scintillation counting fluid is added, the plates are heat sealed and shaken for 30 minutes at room temperature prior to measuring the amount of radioactivity in each well on a Packard Top-Count instrument.
In Vitro Assay of Compounds that Inhibit Uptake of [^14C3-Alanine
The alanine uptake assay is performed in an identical fashion to the taurocholate assay, with the exception that labeled alanine is substituted for the labeled taurocholate.

[3] = H14 cells, Table 5, read-out: IC50 uM (In vitro Taurocholate Cell Uptake)
[4] = In Vitro Taurocholate Uptake, Table 10, read-out: Human TC IC50

Compound: CCCCC1(CCCC)CS(=O)(=O)c2ccc(N(C)C)cc2[C@@H](c2cccc(NC(=O)OCCC[N+]34CCN(CC3)CC4)c2)[C@H]1O.[Cl-]
melting point: 218 to 225 °C

Compound: CCCCC1(CCCC)CS(=O)(=O)c2ccc(N(C)C)cc2[C@@H](c2cccc(NC(=O)Nc3cccc(C[N+]45CCN(CC4)CC5)c3)c2)[C@H]1O.[Cl-]
melting point: 246 to 248 °C

Compound: O=S1(=O)CC2(CCCCC2)[C@@H](O)[C@@H](c2ccccc2)c2ccccc21 (relative stereo) [Example 60, cis-4-Hydroxy-5-phenyl-2,3,4,5-tetrahydro spiro(benzothiepine-3,1′-cyclohexane)-1,1-dioxide]
IC50 [1, 3]: 9 µM
inhibition at 100 µM ([2]; Mesocricetus auratus): 59%

Compound: CCCCC1(CC)C=C(c2ccccc2)c2ccccc2S(=O)(=O)C1 (stereo not shown) [Example 7, 3-Butyl-3-ethyl-5-phenyl-2,3-dihydrobenzothiepine-1,1-dioxide]
IC50 [1, 3]: 50 µM
inhibition at 100 µM ([2]; Mesocricetus auratus): 49.3%

Compound: CCCCC1(CC)CS(=O)(=O)c2cc(OCC)ccc2C(c2ccccc2)C1O (stereo not shown) [Example 28]
IC50 [1, 3]: 8 µM
inhibition at 20 µM ([2]; Mesocricetus auratus): 31%

Compound: CCCC[C@]1(CC)CS(=O)(=O)c2ccccc2[C@@H](c2ccc(C(=O)OC)cc2)[C@H]1O [Example 43, (3α,4β,5β) 3-Butyl-5-(4-carbomethoxyphenyl)-3-ethyl-4-hydroxy-2,3,4,5-tetrahydrobenzothiepine-1,1-dioxide]
IC50 [1, 3]: 1.5 µM
inhibition at 25 µM ([2]; Mesocricetus auratus, 25 μM): 16%

Compound: CCCC[C@]1(CC)CS(=O)(=O)c2ccc(OC)cc2[C@H](c2ccccc2)[C@@H]1O [Example 48, (3α,4α,5α) 3-Butyl-3-ethyl-4-hydroxy-7-methoxy-5-phenyl-2,3,4,5-tetrahydrobenzothiepine-1,1-dioxide]
IC50 [1, 3]: 2 µM
inhibition at 20 µM ([2]; Mesocricetus auratus): 22%

Compound: CCC1(CC)CS(=O)(=O)c2ccc(NC(=O)OCc3ccccc3)cc2[C@@H](c2ccccc2)[C@H]1O [Example 286]
melting point: 180 to 181 °C
IC50 ([1]; read-out: Human TC IC50): 19 µM

Compound: CCCCC1(CCCC)CS(=O)(=O)c2ccc(N(C)C)cc2[C@@H](c2ccc(OCCCCS(N)(=O)=O)cc2)[C@H]1O [Example 1405]
melting point: 108 to 110 °C
IC50 [1, 4]: 0.021 µM

The next lines start with results.

melting point: 136 °C
Compound: CCCCC1(CCCC)CS(=O)(=O)c2ccc(N(C)C)cc2[C@@H](c2ccc(OCCCCC[n+]3cccc4ccccc43)cc2)[C@H]1O (as salt: methanesulfonate) [Example 1412, (4R-cis)-1-[5-[4-[3,3-Dibutyl-7-(dimethylamino)-2,3,4,5-tetrahydro-4-hydroxy-1,1-dioxido-1-benzothiepin-5-yl]phenoxy]pentyl]quinolinium, methanesulfonate (Salt)]

IC50 [1, 3]: 7 µM
Compound: CCCCC1(CC)CS(=O)(=O)c2ccccc2C(=C2CCCCC2)C1O (stereo not shown) [Example 10a, 3-Butyl-3-ethyl-4-hydroxy-5-cyclohexylidine--2,3,4,5-tetrahydrobenzothiepine-1,1-dioxide]
% Inhibition of Alanine Uptake @ 100 uM ([2]; 100 uM): 77.6%

IC50 [1, 3]: 3 µM
Compound: CCCC[C@]1(CC)CS(=O)(=O)c2ccc(NO)cc2[C@H](c2ccccc2)[C@@H]1O [Example 37, (3α,4α,5α) 3-Butyl-3-ethyl-4-hydroxy-7-hydroxyamino-5-phenyl-2,3,4,5-tetrahydrobenzothiepine-1,1-dioxide]
inhibition at 5 µM ([2]; Mesocricetus auratus, 5 μM): 0%

IC50 [1, 3]: 2 µM
Compound: CCCCCCNc1ccc2c(c1)[C@@H](c1ccccc1)[C@@H](O)[C@](CC)(CCCC)CS2(=O)=O [Example 41, (3α,4β,5β) 3-Butyl-3-ethyl-7-(n-hexylamino)-4-hydroxy-5-phenyl-2,3,4,5-tetrahydrobenzothiepine-1,1-dioxide]
inhibition at 20 µM ([2]; Mesocricetus auratus): 0%

melting point: 67 to 72.5 °C
IC50 [1, 4]: 0.003 µM
Compound: CCCCC1(CCCC)CS(=O)(=O)c2ccc(N(C)C)cc2[C@@H](c2ccc(OCCCCCNC(=N)N)cc2)[C@H]1O [Example 1422, (4R-cis)-[5-[4-[3,3-Dibutyl-7-(dimethylamino)-2,3,4,5-tetrahydro-4-hydroxy-1,1-dioxido-1-benzothiepin-5-yl]phenoxy]pentyl]guanidine]
